Experimental data reported in patent US20250090538A1, “TLR7/8-ANTAGONIST FOR TREATING SJÖGREN'S SYNDROME OR MIXED CONNECTIVE TISSUE DISEASE” (Novartis AG, priority 2022, published 2025).
“Also recorded” adds a separate entry of the source.

How the values were obtained:
[1] = First-in-human study, safety and tolerability in healthy volunteers; type: in vivo; conditions: healthy subjects
Method: (§1) A first-in-human (FIH) study was conducted to assess the safety and tolerability, pharmacokinetics (PK) and pharmacodynamics (PD) of single and multiple doses of compound of Formula (I) as twice daily (bid) oral administration in healthy volunteers, to support further clinical development of compound of Formula (I) in autoimmune diseases. This study also explored the effect of food intake.
(§2) First-in-human study in healthy volunteers (HVs) included the following: • Part A was a randomized, subject-blinded, placebo-controlled, single ascending dose (SAD) study with 10 cohorts. Each cohort received in an ascending order a 1 mg, 3 mg, 10 mg, 20 mg, 40 mg, 80 mg, 160 mg, 320 mg, 640 mg or 1000 mg single dose of compound of Formula (I). • Part B was a randomized, subject-blinded, placebo-controlled, multiple ascending dose (MAD) study with 5 cohorts. Each cohort received in an ascending order a 25 mg, 50 mg, 100 mg, 200 mg or 400 mg dose of compound of Formula (I) b.i.d. for 14 days. • Part C was a randomized, open-label, two-sequence, two-period crossover study with a 200 mg dose of compound of Formula (I) administered each underfed or fasted condition, for the food effect evaluation.

[2] = First-in-human study, pharmacokinetics in healthy volunteers (plasma concentration; SAD, MAD, food effect); type: in vivo; conditions: for increase of exposure (plasma concentration) with dose: healthy volunteers
Method: as §1, §2

TLR8 = target: T1, TLR8 (Homo sapiens, UniProt Q9NR97); assay: Ex-vivo stimulation of whole blood from SAD and MAD cohorts with a TLR7/8 agonist, monocyte TNF production; type: cell-based
T1 construct: endogenous in cells; host or cells: monocytes in whole blood of healthy human subjects (SAD and MAD cohorts)
T1 sequence (Q9NR97 27-1041): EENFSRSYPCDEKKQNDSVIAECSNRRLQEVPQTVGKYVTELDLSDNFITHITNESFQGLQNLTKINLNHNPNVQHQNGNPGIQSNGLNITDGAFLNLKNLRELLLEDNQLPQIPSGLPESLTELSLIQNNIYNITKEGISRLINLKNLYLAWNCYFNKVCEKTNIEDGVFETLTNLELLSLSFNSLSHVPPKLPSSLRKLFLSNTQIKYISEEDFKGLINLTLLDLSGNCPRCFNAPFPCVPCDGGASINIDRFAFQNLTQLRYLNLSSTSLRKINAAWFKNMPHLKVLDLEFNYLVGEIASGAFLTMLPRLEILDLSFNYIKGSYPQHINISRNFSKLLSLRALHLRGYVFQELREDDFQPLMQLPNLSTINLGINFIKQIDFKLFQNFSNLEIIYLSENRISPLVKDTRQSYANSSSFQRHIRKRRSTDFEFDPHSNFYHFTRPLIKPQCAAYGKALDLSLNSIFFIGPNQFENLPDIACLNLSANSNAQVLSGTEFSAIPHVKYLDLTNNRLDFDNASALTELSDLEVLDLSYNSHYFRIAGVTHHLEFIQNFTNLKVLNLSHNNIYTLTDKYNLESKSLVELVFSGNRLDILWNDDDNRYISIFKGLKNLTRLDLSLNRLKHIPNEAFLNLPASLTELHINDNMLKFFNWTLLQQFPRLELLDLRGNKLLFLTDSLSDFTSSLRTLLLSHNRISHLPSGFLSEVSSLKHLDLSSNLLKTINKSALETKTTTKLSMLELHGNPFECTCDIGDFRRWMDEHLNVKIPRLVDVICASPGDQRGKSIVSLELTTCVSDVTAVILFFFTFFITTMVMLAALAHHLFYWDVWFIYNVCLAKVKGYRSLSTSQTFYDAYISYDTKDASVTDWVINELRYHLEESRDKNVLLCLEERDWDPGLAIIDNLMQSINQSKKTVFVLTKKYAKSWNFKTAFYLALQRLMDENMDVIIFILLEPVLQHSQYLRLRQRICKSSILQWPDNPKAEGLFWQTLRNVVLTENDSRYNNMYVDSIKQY
Text: (§3) CD69 and TNF are biomarkers intended to inform the pharmacodynamic (PD) effect of compound of Formula (I). Whole blood samples from the SAD and MAD cohorts were ex-vivo stimulated with a TLR7/8 agonist to increase levels of CD69 and TNF.

TLR7 = target: T2, TLR7 (Homo sapiens, UniProt Q9NYK1); assay: Ex-vivo stimulation of whole blood from SAD and MAD cohorts with a TLR7/8 agonist, B cell activation (CD69); type: cell-based
T2 construct: endogenous in cells; host or cells: B cells in whole blood of healthy human subjects (SAD and MAD cohorts)
T2 sequence (Q9NYK1 27-1049): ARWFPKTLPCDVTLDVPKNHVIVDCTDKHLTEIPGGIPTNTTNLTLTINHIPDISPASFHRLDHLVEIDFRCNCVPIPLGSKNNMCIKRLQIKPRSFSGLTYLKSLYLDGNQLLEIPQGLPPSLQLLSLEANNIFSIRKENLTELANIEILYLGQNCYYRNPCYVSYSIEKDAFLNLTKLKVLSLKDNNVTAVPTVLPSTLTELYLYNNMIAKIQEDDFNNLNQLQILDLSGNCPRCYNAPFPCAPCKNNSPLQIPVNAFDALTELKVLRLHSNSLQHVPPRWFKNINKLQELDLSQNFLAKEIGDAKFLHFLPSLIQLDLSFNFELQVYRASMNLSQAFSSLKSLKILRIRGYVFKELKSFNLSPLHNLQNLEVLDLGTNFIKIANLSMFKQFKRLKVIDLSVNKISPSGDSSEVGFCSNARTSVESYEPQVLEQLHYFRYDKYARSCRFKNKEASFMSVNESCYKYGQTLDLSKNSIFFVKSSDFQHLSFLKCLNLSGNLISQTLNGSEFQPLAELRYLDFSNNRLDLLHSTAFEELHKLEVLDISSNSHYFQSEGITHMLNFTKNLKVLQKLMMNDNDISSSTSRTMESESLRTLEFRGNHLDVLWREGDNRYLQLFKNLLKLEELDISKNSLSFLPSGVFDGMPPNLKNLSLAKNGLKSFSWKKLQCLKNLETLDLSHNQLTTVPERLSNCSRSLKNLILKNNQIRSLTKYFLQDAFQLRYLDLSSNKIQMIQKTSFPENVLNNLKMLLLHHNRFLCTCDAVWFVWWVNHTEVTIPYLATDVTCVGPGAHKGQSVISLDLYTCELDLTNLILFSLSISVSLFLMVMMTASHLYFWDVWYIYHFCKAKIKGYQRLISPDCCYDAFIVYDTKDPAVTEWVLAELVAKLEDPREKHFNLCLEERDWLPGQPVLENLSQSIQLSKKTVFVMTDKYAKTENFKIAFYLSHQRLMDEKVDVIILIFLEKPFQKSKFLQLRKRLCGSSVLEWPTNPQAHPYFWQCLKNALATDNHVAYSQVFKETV
Text: as §3

TLR7 and TLR8 = assay: Selectivity for TLR7 and TLR8 over other TLRs and the IL-1 receptor on human PBMCs; type: cell-based
[3] = 200 mg b.i.d. for 14 days, FIH study
[4] = ex-vivo stimulated whole blood, across the dose range (SAD and MAD)

Cmax timing under fed condition ([2]; 200 mg dose, fed condition, FIG. 3): slightly delayed Cmax
food effect on exposure ([2]; 200 mg dose, fed vs fasted crossover, FIG. 3): No relevant food effect
half-life ([2]; plasma, oral, human, FIH study, maximum value, read-out: terminal half-life): ≤ 14.4 h
increase of exposure (plasma concentration) with dose ([2]; single ascending dose, oral, FIG. 1): dose-proportional for the higher doses
TLR8 pathway inhibition (TLR8; [3]): full pathway inhibition
TLR7 pathway inhibition (TLR7; [3]): full pathway inhibition
B cell activation (upregulation of CD69) following TLR7 stimulation (TLR7; [4]): inhibited B cell activation
SMILES: Cc1cc(N2CCc3c(c(C)nn3CC34CCC(NC(=O)[C@@H]5COCCN5)(CC3)CC4)C2)c2cnn(C)c2n1 [compound of Formula (I), (S)-N-(4-((5-(1,6-dimethyl-1H-pyrazolo[3,4-b]pyridin-4-yl)-3-methyl-4,5,6,7-tetrahydro-1H-pyrazolo[4,3-c]pyridin-1-yl)methyl)bicyclo[2.2.2]octan-1-yl)morpholine-3-carboxamide]
safety and tolerability ([1]; multiple administrations of up to 400 mg b.i.d. for 14 days): safe and well tolerated; also recorded: safe and well-tolerated
safety and tolerability ([1]; single oral administration of up to 1000 mg): safe and well tolerated; also recorded: safe and well-tolerated
increase of exposure (plasma concentration) with dose ([2]; multiple ascending dose b.i.d. for 14 days, FIG. 2): dose-proportional at steady state for the lower doses
activation of human monocytes to produce TNF following TLR8 stimulation (TLR8; [4]): inhibited activation of human monocytes to produce TNF
selectivity for TLR7 and TLR8 over other TLRs and the IL-1 receptor (TLR7 and TLR8): highly selective
